Values quoted from earlier work, collected in paper PMC10969742, “A Phase I Study of the Oral Dual-Acting Pan-PI3K/mTOR Inhibitor Bimiralisib in Patients with Advanced Solid Tumors” (Cancers, 2024).

Set-up: method as in PMID 28490463
Details: intermittent versus daily dosing; cited from earlier work

Nc1nc2cc(-c3ccc4ncc(C(=O)N5CCOCC5)n4c3)ccc2o1 [TAK-117]
Safety profile of intermittent dosing: acceptable safety profile
